Measured values: patent US12209102B2, “Heterocyclic compounds and uses thereof” (Kumquat Biosciences Inc., priority 2022, dated 2025)

Legend:
SW620 cells = experiment: Ras cellular assay, growth of cells with K-Ras G12V mutation (CellTiter-Glo); format: cell-based; details: Homo sapiens, SW-620; cell growth, Example 9, G12V mutation; read-out: IC50 against SW620 cells
How it was run: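 IC50 values came from a four-parameter fit of CellTiter-Glo viability, read roughly 6 days after dosing with e.g. a 10-point threefold dilution series. G12V-mutant SW620 cells (e.g. 800 per well) had been plated the previous day in RPMI-1640/10% heat-inactivated FBS, on tissue culture-treated or ultra-low attachment plates.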

GP2D cells = experiment: Ras cellular assay, growth of cells with K-Ras G12D mutation (CellTiter-Glo); format: cell-based; details: cell growth, Example 9, G12D mutation, read-out: IC50 against GP2D cells
K-Ras WT = target: T1, K-Ras WT (Homo sapiens, UniProt P01116); experiment: HTRF resonance energy transfer assay, K-Ras WT / SOS1 interaction; format: biochemical; details: HTRF assay of Example 5; read-out: IC50 against K-Ras WT
T1 construct: made in house; host or cells: E. coli BL21 (DE3)
How it was run: (§1)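 Compounds, tested in duplicate at 10 μM down to 0.01 μM, were read after about 10 min or more by HTRF as the 665/620 nm emission ratio (337 nm excitation) to derive IC50. This ratio reports FRET between an anti-GST-Eu donor on GST-K-Ras (wild-type or mutant) and an anti-6His-XL665 acceptor on His-hSOS1. Buffer: ~5 mM HEPES pH 7.4, 150 mM NaCl, 1 mM DTT, 0.05% BSA, 0.0025% Igepal.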

K-Ras G12D = target: T2, K-Ras G12D (Homo sapiens, UniProt P01116, G12D); experiment: HTRF resonance energy transfer assay, K-Ras G12D / SOS1 interaction; format: biochemical; details: HTRF assay of Example 5; read-out: IC50 against K-Ras G12D
T2 construct: made in house; host or cells: E. coli BL21 (DE3)
How it was run: as §1

A549 cells = experiment: Ras cellular assay, growth of cells with K-Ras G12S mutation (CellTiter-Glo); format: cell-based; details: Homo sapiens, cell growth, Example 9, G12S mutation, read-out: IC50 against A549 cells
How it was run: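 Growth inhibition IC50 values come from four-parameter fits of CellTiter-Glo luminescence, read about 6 days after compound addition. G12S-mutant A549 cells (e.g. 800/well, RPMI-1640 + 10% heat-inactivated FBS) were plated in tissue-culture-treated or ultra-low-attachment 384-well format. Dosing began the following day with serial dilutions, e.g. 10 points, 3-fold.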

K-Ras G12V = target: T3, K-Ras G12V (Homo sapiens, UniProt P01116, G12V); experiment: HTRF resonance energy transfer assay, K-Ras G12V / SOS1 interaction; format: biochemical; details: HTRF assay of Example 5; read-out: IC50 against K-Ras G12V
T3 construct: made in house; host or cells: E. coli BL21 (DE3)
How it was run: as §1

K-Ras G12S = target: T4, K-Ras G12S (Homo sapiens, UniProt P01116, G12S); experiment: HTRF resonance energy transfer assay, K-Ras G12S / SOS1 interaction; format: biochemical; details: HTRF assay of Example 5; read-out: IC50 against K-Ras G12S
T4 construct: made in house; host or cells: E. coli BL21 (DE3)
How it was run: as §1

T1 sequence (P01116 1-188 isoform P01116-2): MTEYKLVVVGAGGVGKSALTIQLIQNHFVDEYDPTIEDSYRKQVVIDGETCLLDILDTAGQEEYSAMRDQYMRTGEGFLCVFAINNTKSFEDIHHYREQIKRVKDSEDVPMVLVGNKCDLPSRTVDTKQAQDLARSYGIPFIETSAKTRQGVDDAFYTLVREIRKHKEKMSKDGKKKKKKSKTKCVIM
T3 sequence (P01116 1-188 isoform P01116-2 G12V): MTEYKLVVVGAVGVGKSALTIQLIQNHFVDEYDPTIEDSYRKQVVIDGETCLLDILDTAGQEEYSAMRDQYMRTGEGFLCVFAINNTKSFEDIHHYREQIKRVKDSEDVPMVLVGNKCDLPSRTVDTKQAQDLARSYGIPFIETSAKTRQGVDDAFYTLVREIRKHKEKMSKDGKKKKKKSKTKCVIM
T4 sequence (P01116 1-188 isoform P01116-2 G12S): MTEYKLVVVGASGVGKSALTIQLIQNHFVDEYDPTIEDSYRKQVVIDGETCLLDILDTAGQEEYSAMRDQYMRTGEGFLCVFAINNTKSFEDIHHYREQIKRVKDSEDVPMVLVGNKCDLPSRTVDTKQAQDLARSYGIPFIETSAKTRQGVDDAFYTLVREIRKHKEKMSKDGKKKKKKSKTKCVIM
T2 sequence (P01116 1-188 isoform P01116-2 G12D): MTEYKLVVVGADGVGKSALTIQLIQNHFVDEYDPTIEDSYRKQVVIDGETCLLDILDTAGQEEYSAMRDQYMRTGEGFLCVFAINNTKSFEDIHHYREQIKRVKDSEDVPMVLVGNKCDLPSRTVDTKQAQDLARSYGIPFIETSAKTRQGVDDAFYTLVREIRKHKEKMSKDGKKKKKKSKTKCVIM

SMILES | IC50 (SW620 cells) [nM] | IC50 (GP2D cells) [nM] | IC50 (K-Ras WT) [nM] | IC50 (K-Ras G12D) [nM] | IC50 (A549 cells) [nM] | IC50 (K-Ras G12V) [nM] | IC50 (K-Ras G12S) [nM]
CC(C)[C@H]1COc2c(Cl)c(-c3ccc(F)c4sc(N)c(C#N)c34)c(F)c3nc(OC[C@@]45CCCN4C[C@H](F)C5)nc(c23)N1CC(F)F [Compound 884, 2-amino-4-((5S)-8-chloro-4-(2,2-difluoroethyl)-10-fluoro-2-(((2R,7aS)-2-fluorotetrahydro-1H-pyrrolizin-7a(5H)-yl)methoxy)-5-isopropyl-5,6-dihydro-4H-[1,4]oxazepino[5,6,7-de]quinazolin-9-yl)-7-fluorobenzo[b]thiophene-3-carbonitrile] | < 5000 | < 500 | < 100 | < 100 | < 5000 | < 100 | < 100
CC1COc2c(Cl)c(-c3ccc(F)c4sc(N)c(C#N)c34)c(F)c3nc(OC[C@@]45CCCN4C[C@H](F)C5)nc(c23)N1[C@@H]1CCOC1 (stereo partly drawn) [Compound 888, 2-amino-4-(8-chloro-10-fluoro-2-(((2R,7aS)-2-fluorotetrahydro-1H-pyrrolizin-7a(5H)-yl)methoxy)-5-methyl-4-((R)-tetrahydrofuran-3-yl)-5,6-dihydro-4H-[1,4]oxazepino[5,6,7-de]quinazolin-9-yl)-7-fluorobenzo[b]thiophene-3-carbonitrile] | < 5000 | < 500 | < 100 | < 100 | < 5000 | < 100 | < 100
N#Cc1c(N)sc2c(F)ccc(-c3c(Cl)c4c5c(nc(OC[C@@]67CCCN6C[C@H](F)C7)nc5c3F)N(C3CC3)CCO4)c12 [Compound 891, 2-amino-4-(8-chloro-4-cyclopropyl-10-fluoro-2-(((2R,7aS)-2-fluorotetrahydro-1H-pyrrolizin-7a(5H)-yl)methoxy)-5,6-dihydro-4H-[1,4]oxazepino[5,6,7-de]quinazolin-9-yl)-7-fluorobenzo[b]thiophene-3-carbonitrile] | < 5000 | < 500 | < 100 | < 100 | < 5000 | < 100 | < 100
N#Cc1c(N)sc2c(F)ccc(-c3c(Cl)c4c5c(nc(OC[C@@]67CCCN6C[C@H](F)C7)nc5c3F)N(C3CC5CCC3N5C=O)CCO4)c12 (stereo partly drawn) [Compound 892, 2-amino-4-(8-chloro-10-fluoro-2-(((2R,7aS)-2-fluorotetrahydro-1H-pyrrolizin-7a(5H)-yl)methoxy)-4-(7-formyl-7-azabicyclo[2.2.1]heptan-2-yl)-5,6-dihydro-4H-[1,4]oxazepino[5,6,7-de]quinazolin-9-yl)-7-fluorobenzo[b]thiophene-3-carbonitrile] | < 5000 | < 500 | < 100 | < 100 | < 5000 | < 100 | < 100
N#Cc1c(N)sc2c(F)ccc(-c3c(Cl)c4c5c(nc(OC[C@@]67CCCN6C[C@H](F)C7)nc5c3F)N(C3CCn5nccc5C3)CCO4)c12 (stereo partly drawn) [Compound 893, 2-amino-4-(8-chloro-10-fluoro-2-(((2R,7aS)-2-fluorotetrahydro-1H-pyrrolizin-7a(5H)-yl)methoxy)-4-(4,5,6,7-tetrahydropyrazolo[1,5-a]pyridin-5-yl)-5,6-dihydro-4H-[1,4]oxazepino[5,6,7-de]quinazolin-9-yl)-7-fluorobenzo[b]thiophene-3-carbonitrile] | < 5000 | < 500 | < 100 | < 100 | < 5000 | < 100 | < 100
CN1c2nc(OC[C@@]34CCCN3C[C@H](F)C4)nc3c(F)c(-c4ccc(F)c5sc(N)c(C#N)c45)c(Cl)c(c23)OCC1CO (stereo partly drawn) [Compound 900, 2-amino-4-(8-chloro-10-fluoro-2-(((2R,7aS)-2-fluorotetrahydro-1H-pyrrolizin-7a(5H)-yl)methoxy)-5-(hydroxymethyl)-4-methyl-5,6-dihydro-4H-[1,4]oxazepino[5,6,7-de]quinazolin-9-yl)-7-fluorobenzo[b]thiophene-3-carbonitrile] | < 5000 | < 500 | < 100 | < 100 | < 5000 | < 100 | < 100
